This is an account of results in US7585997B2, “Compounds and compositions for treating dysproliferative diseases, and methods of use thereof” (Chesterford Enterprises Limited, priority 2003, dated 2009).

Where two headings read alike, the source gives them in different places.

Holding throughout (assay type): cell-based
The test system of assay [1] is HT-29 human colon adenocarcinoma. The assay can be described thus: Cell growth inhibition, HT-29 cells.
For assay [2], the system named is BxPC3, carcinoma of pancreas. As to the kind of experiment: Cell growth inhibition, BxPC3 cells. As to conditions: Homo sapiens, read-out: IC50, BxPC3, pancreas.
Another assay concerns JB6c141 rat skin cells. The assay can be described thus: Colony Formation Assay (soft agar assay for colony formation). To be noted: 100 micromolar, 14 days, with or without epidermal growth factor. From the text: The Colony Formation Assay, also known as “soft agar assay for colony formation” as described by David Bowtell (accessed on the Internet as recently as on Dec. 29, 2003 at http://grimwade.biochem.unimelb.edu.au/bowtell/cellbiol/sect71.htm) was also used to asses the neoplastic cell growth inhibitory effect of these compounds and using the JB6c141 rat skin cells. Briefly, and following the plating of cells in the presence or absence of epidermal growth factor and in each case, in the presence or absence of the test compound, they were incubated at […] in a humidified incubator for 14 days, when plates were stained 0.005% Crystal Violet for >1 hour, colonies were counted using a dissecting microscope.

Where [3] appears, read: HT-29, 24 hr, read-out: IC50, HT-29, colon.
The mark [4] stands for this setting: HT-29, 24 h, read-out: IC50, HT-29, colon.

The IC50 is the concentration at which inhibition is half-maximal. Take `CC(=O)Oc1ccccc1C(=O)Oc1ccc(CO)cc1` [2-(acetyloxy)benzoic acid 4-(hydroxymethyl)phenyl ester]: the IC50 in assay [1] (setting [3]) is more than 500 µM; in assay [2] (BXPC-3, 24 hr) it was more than 500 µM.

For the compound `CC(=O)Oc1ccccc1C(=O)O` [Aspirin, reference compound], the IC50 is more than 1000 µM in assay [1] (setting [3]) and more than 1000 µM in assay [2] (BXPC-3, 24 hr). With `O=C(/C=C/c1ccc(O)c(O)c1)Oc1ccc(CO)cc1` [Caffeic acid 4-(hydroxymethyl)phenyl ester], the IC50 in assay [1] (setting [3]) was more than 500 µM. With `O=C(O)/C=C/c1ccc(O)c(O)c1` [Caffeic acid, reference compound], the IC50 in assay [1] (setting [3]) is more than 1000 µM; in assay [2] (BXPC-3, 24 hr), more than 1000 µM.

Take `O=C(C=Cc1ccccc1)Oc1ccc(CO)cc1` [Cinnamic acid 4-(hydroxymethyl)phenyl ester]: the IC50 in assay [1] (setting [3]) worked out at 150 ± 12 µM. Compound `CC(C(=O)Oc1ccc(COc2ccc([N+](=O)[O-])cc2[N+](=O)[O-])cc1)c1ccc(-c2ccccc2)c(F)c1` (stereo not drawn) [Compound 1] returned an IC50 in assay [1] (HT-29, 48 h) of approximately 73 µM. The colony formation result in the assay with JB6c141 rat skin cells was “abolished colony formation”. Consider `CC(=O)Oc1ccccc1C(=O)Nc1ccc(CCl)cc1` [Compound 26, 2-(acetyloxy)benzoic acid 4-(chloromethyl)phenyl amide], for which the IC50 in assay [1] (setting [4]) turned out to be 12 ± 3 µM. Take `CC(=O)Oc1ccccc1C(=O)Nc1ccc(CBr)cc1` [Compound 29, 2-(acetyloxy)benzoic acid 4-(bromomethyl)phenyl amide]: the IC50 in assay [1] (setting [4]) is 7 ± 2 µM; in assay [2] (BXPC-3, 24 h), 18 ± 3 µM. On to `O=C(/C=C/c1ccc(O)c(O)c1)Oc1ccc(CO[N+](=O)[O-])cc1` [Compound 41, caffeic acid 4-(nitrooxymethyl)phenyl ester], for which the IC50 in assay [1] (setting [4]) is approximately 0.5 µM.

Take `O=C(/C=C/c1ccc(O)c(O)c1)Oc1ccc(CCl)cc1` [Compound 47, caffeic acid 4-(chloromethyl)phenyl ester]: in assay [1] (setting [4]), the IC50 was 0.25 µM.
